We go through ten molecules from ChEMBL document CHEMBL1201862, “PubChem BioAssay data set” (2004).

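Values below derive from 48-hour exposures of cells grown in 96-well plates, with endpoints linearly interpolated between the two concentrations bracketing the appropriate inhibition level. Abbreviation: GI50, concentration required for 50% inhibition of growth.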 Activity calls are given as the source filed them. Rule as the data show it: active = GI50 up to about 1.1 µM and inactive = higher. A value given as a limit tells only on which side of the number the result lay.

Test systems include TK-10; A549; SNB-75; LOX IMVI; MOLT-4; Hs-578T; EKVX; MDA-MB-435; OVCAR-5; U-251; KM12; SF-295; MCF7; UO-31; NCI-H460; M14; SK-MEL-2; HL-60; RXF 393; NCI-H23.
What all share (assay): DTP human tumour cell line panel, 48 h

With `O=C(O)CN1C(=O)CN=C(c2ccccn2)c2cc(Cl)ccc21`, the GI50 with TK-10 was > 100 µM (inactive); in the assay on A549, > 100 µM (inactive); in the assay with SNB-75, > 100 µM (inactive); with LOX IMVI, > 100 µM (inactive); in the assay on MOLT-4 it was 1.24 µM (inactive); in the assay with Hs-578T, > 100 µM (inactive). Further, the GI50 in the assay with EKVX, with MDA-MB-435, in the assay with OVCAR-5, with U-251, in the assay on KM12 and in the assay with SF-295 was > 100 µM (inactive) in each case. Moreover, the GI50 is > 100 µM (inactive) with MCF7; > 100 µM (inactive) with UO-31; > 100 µM (inactive) in the assay on NCI-H460; > 100 µM (inactive) with M14; > 100 µM (inactive) with SK-MEL-2; 4.31 µM (inactive) with HL-60. The GI50 in the assay on RXF 393 is > 100 µM (inactive).
With `N=C(N)N/N=C(\c1ccc(F)cc1)c1ccc(C(F)(F)F)cc1`, the GI50 was 1.66 µM (inactive) with TK-10; 0.412 µM (active) in the assay on A549; 1.75 µM (inactive) with SNB-75; 0.323 µM (active) in the assay on LOX IMVI; 0.358 µM (active) in the assay on MOLT-4; 0.36 µM (active) in the assay on Hs-578T. In addition, the GI50 is 0.505 µM (active) with EKVX; 0.075 µM (active) in the assay on MDA-MB-435; 0.497 µM (active) in the assay with OVCAR-5; 0.473 µM (active) with U-251; 0.203 µM (active) with KM12; 0.264 µM (active) in the assay on SF-295. The GI50 with MCF7 is 0.242 µM (active); in the assay with UO-31, 0.53 µM (active); with NCI-H460, 0.332 µM (active); in the assay on M14 it was 0.298 µM (active); with SK-MEL-2 it was 1.24 µM (inactive); in the assay with NCI-H23 it was 0.382 µM (active). Moreover, the results for the GI50 with HL-60 and in the assay with RXF 393 were 0.213 µM (active) and 0.22 µM (active), respectively.
Turning to `O=S(=O)(/C=C/C=C/S(=O)(=O)c1ccccc1)c1ccccc1`, the GI50 in the assay with TK-10 was 1.57 µM (inactive); in the assay on A549, 9.27 µM (inactive); in the assay with SNB-75 it was 6.61 µM (inactive); in the assay on LOX IMVI, 0.713 µM (active); in the assay with MOLT-4, 0.315 µM (active); in the assay on Hs-578T it was 2.43 µM (inactive). Also, the GI50 in the assay on EKVX was 1.72 µM (inactive); in the assay on MDA-MB-435 it was 1.45 µM (inactive); in the assay with OVCAR-5, 7.83 µM (inactive); in the assay with U-251 it was 4.12 µM (inactive); with KM12 it was 2.29 µM (inactive); in the assay with SF-295, 10.4 µM (inactive). Also, the GI50 in the assay with MCF7 is 0.845 µM (active); in the assay on UO-31 it was 1.46 µM (inactive); with NCI-H460, 6.1 µM (inactive); with M14 it was 0.507 µM (active); in the assay on SK-MEL-2, 2.72 µM (inactive); in the assay with NCI-H23 it was 1.35 µM (inactive). Besides, the 50% growth inhibitory concentration (GI50) in the assay on HL-60 is 0.256 µM (active); in the assay on RXF 393, 0.36 µM (active).
`O=C1c2c(Br)sc(Br)c2C(NC(=O)C(F)(F)F)C1O` (stereo not drawn): the GI50 in the assay on TK-10 is > 100 µM (inactive); in the assay on A549 it was 25.3 µM (inactive); in the assay with SNB-75 it was 27.9 µM (inactive); in the assay with LOX IMVI, 21.8 µM (inactive); in the assay on MOLT-4, 31.3 µM (inactive); in the assay on Hs-578T, 32.8 µM (inactive). For the same molecule, the GI50 with EKVX is 19.5 µM (inactive); in the assay on MDA-MB-435 it was 23.5 µM (inactive); in the assay with OVCAR-5, 19.7 µM (inactive); in the assay on U-251, 19.5 µM (inactive); in the assay with KM12, 30.1 µM (inactive); in the assay with SF-295 it was 18.7 µM (inactive). In addition, the GI50 in the assay on MCF7 was 22.8 µM (inactive); with UO-31 it was 22.4 µM (inactive); in the assay with NCI-H460, 20.4 µM (inactive); in the assay with M14, 20.6 µM (inactive); in the assay on SK-MEL-2, 16.7 µM (inactive); in the assay with NCI-H23 it was 22.6 µM (inactive). The GI50 in the assay on HL-60 is 8.39 µM (inactive); with RXF 393, 13.3 µM (inactive).
In the case of `N#C/C(=C\c1ccc(F)cc1)c1nc2ccccc2c(=O)[nH]1`, the GI50 in the assay on TK-10 was > 100 µM (inactive); in the assay on A549, > 100 µM (inactive); with SNB-75, 25.9 µM (inactive); with LOX IMVI, > 100 µM (inactive); in the assay on MOLT-4 it was 26.1 µM (inactive); in the assay on Hs-578T, 79.6 µM (inactive). Also, the GI50 was > 100 µM (inactive) in the assay on EKVX; > 100 µM (inactive) in the assay on MDA-MB-435; > 100 µM (inactive) in the assay on OVCAR-5; 70.6 µM (inactive) with U-251; 3.91 µM (inactive) in the assay on KM12; > 100 µM (inactive) in the assay with SF-295. Also, the GI50 with MCF7, with UO-31, in the assay on NCI-H460, in the assay on M14, in the assay on SK-MEL-2 and with HL-60 was > 100 µM (inactive) throughout. In addition, the GI50 with RXF 393 is > 100 µM (inactive).
As to `C[C@H](C(O)CC(=O)C(C)(C)O)[C@H]1CC[C@@]2(C)[C@@H]3CC[C@H]4C(C)(C)[C@@H](OC5OC(COC6OC(CO)C(O)C(O)C6O)C(O)C(O)C5O)CC[C@]4(C)C3=CC[C@]12C` (stereo partly drawn), the GI50 with TK-10, in the assay with A549, with SNB-75, with LOX IMVI, with Hs-578T and in the assay on EKVX was > 100 µM (inactive) throughout. Moreover, the GI50 with MDA-MB-435, in the assay on OVCAR-5, in the assay on U-251, in the assay with KM12, in the assay with SF-295 and in the assay with MCF7 was > 100 µM (inactive) throughout. In addition, the GI50 in the assay with UO-31, in the assay with NCI-H460, with M14, in the assay with SK-MEL-2, in the assay with NCI-H23 and in the assay with HL-60 was > 100 µM (inactive) throughout. Moreover, the GI50 in the assay on RXF 393 was > 100 µM (inactive).
As for `CCOC(=O)c1c(-c2ccccc2)c(OC)cn1C`, the GI50 in the assay with TK-10, in the assay with A549, in the assay with SNB-75, in the assay with LOX IMVI, with MOLT-4 and in the assay on Hs-578T was > 10 µM (inactive) throughout. The GI50 in the assay on EKVX, in the assay with MDA-MB-435, in the assay with OVCAR-5, in the assay on U-251, in the assay with KM12 and with SF-295 was > 10 µM (inactive) throughout. The GI50 in the assay on MCF7, in the assay with NCI-H460, with M14, with SK-MEL-2, in the assay on NCI-H23 and in the assay on HL-60 was > 10 µM (inactive) throughout. Moreover, the GI50 with RXF 393 is > 10 µM (inactive).
For the molecule `CCCCCCCCCCCCCCCCOP(=O)(O)OP(=O)(O)OCC1OC(n2cnc3c(N)ncnc32)C(O)C1O` (stereo not drawn), the GI50 was > 100 µM (inactive) with TK-10; > 100 µM (inactive) in the assay on A549; 24.4 µM (inactive) in the assay on SNB-75; > 100 µM (inactive) in the assay with LOX IMVI; 23.5 µM (inactive) in the assay with MOLT-4; 43.8 µM (inactive) in the assay on Hs-578T. For the same molecule, the GI50 is > 100 µM (inactive) in the assay with EKVX; 56.5 µM (inactive) in the assay with MDA-MB-435; 11.5 µM (inactive) with OVCAR-5; 46 µM (inactive) in the assay on U-251; > 100 µM (inactive) with KM12; 56 µM (inactive) in the assay with MCF7. For the same molecule, the GI50 in the assay with UO-31 was 60.5 µM (inactive); in the assay on NCI-H460, 36.1 µM (inactive); in the assay with M14, 64.9 µM (inactive); in the assay on SK-MEL-2, 49.8 µM (inactive); in the assay on NCI-H23, 87.1 µM (inactive); with HL-60, 66.7 µM (inactive). In the assay with RXF 393, the GI50 was 98.4 µM (inactive).
For the molecule `N#Cc1c(N)c2c(c(-c3ccccc3)c1-c1ccccc1)C(=O)N(NC(=O)c1ccccc1)C2=O`, the GI50 was > 100 µM (inactive) with TK-10; > 100 µM (inactive) in the assay on A549; > 100 µM (inactive) in the assay with SNB-75; > 100 µM (inactive) with LOX IMVI; 40.6 µM (inactive) with MOLT-4; 90.6 µM (inactive) in the assay with Hs-578T. Further, the GI50 in the assay with EKVX was > 100 µM (inactive); in the assay on MDA-MB-435, 74.3 µM (inactive); in the assay with OVCAR-5, > 100 µM (inactive); with U-251 it was > 100 µM (inactive); in the assay with KM12, > 100 µM (inactive); in the assay on SF-295 it was > 100 µM (inactive). Further, the GI50 in the assay with MCF7 is 61.2 µM (inactive); in the assay on UO-31 it was 41.9 µM (inactive); in the assay with NCI-H460, 55.1 µM (inactive); in the assay on M14, > 100 µM (inactive); in the assay on SK-MEL-2 it was > 100 µM (inactive); in the assay on HL-60 it was 58.2 µM (inactive). Further, in the assay on RXF 393, the GI50 is 60 µM (inactive).
In the case of `CN(C)S(=O)(=O)Nc1ccccn1`, the GI50 in the assay with TK-10, in the assay on A549, in the assay with SNB-75, in the assay with LOX IMVI, in the assay on Hs-578T and in the assay with EKVX was > 100 µM (inactive) in each case. Also, the GI50 in the assay with MDA-MB-435, with OVCAR-5, in the assay with U-251, in the assay on KM12, in the assay on SF-295 and in the assay on MCF7 was > 100 µM (inactive) throughout. Further, the GI50 in the assay on UO-31, with NCI-H460, in the assay with M14, in the assay with SK-MEL-2, with NCI-H23 and in the assay on HL-60 was > 100 µM (inactive) each time. In addition, in the assay with RXF 393, the GI50 was > 100 µM (inactive).
